Measurements reported in patent USH1142H, “Optically active cyclobutyl pyrimidine” (priority 1990, dated 1993).

How the values were obtained:
[1] = test system: HSV-1 (herpes simplex virus type 1, strain Schooler); assay: HSV-1 antiviral assay (plaque reduction in WI-38 cell culture monolayers); type: cell-based; details: Human alphaherpesvirus 1, 96 h; HSV-1 strain Schooler; WI-38 monolayers; 4 days incubation at 37° C.; at least a 50% plaque reduction compared to virus controls; read-out: ID50 (the source's name)
Experimental: (§1) Assays were performed in cell culture systems to determine the concentrations of compounds that are effective in […] several kinds of viral infections. The assays are described below, and the results are presented in Table 1. |HSV-1 (herpes simplex virus type 1, strain Schooler), VZV |Cell Culture Assays: |HSV-1 and VZV antiviral assays: Virus was adsorbed to |WI-38 cell culture monolayers in 6 well culture plates (Costar, |Cambridge, MA) for 1 hour prior to addition of maintenance |medium containing duplicate dilutions of the test compound. |Inhibition of plaque development was evaluated on fixed and |stained monolayers after 4 days incubation at 37° C. for HSV-1 |and after 6-7 days incubation at 37° C. for VZV. ID50 values |were determined from the drug concentration which conferred at |least a 50% plaque reduction compared to virus controls.

[2] = test system: VZV (varicella zoster virus, strain ELLEN); assay: VZV antiviral assay (plaque reduction in WI-38 cell culture monolayers); type: cell-based; details: Human alphaherpesvirus 3, WI-38 monolayers, 6-7 days incubation at 37° C., at least a 50% plaque reduction compared to virus controls, read-out: ID50 (the source's name)
Experimental: as §1, with “Schooler), VZV |(varicella zoster virus, strain ELLEN). |Cell Culture” for “Schooler), VZV |Cell Culture”

O=c1[nH]c(=O)n([C@@H]2C[C@H](CO)[C@H]2CO)cc1/C=C/Br [Compound 1, [1R-(1α(E),2β,3α)]-1-[2,3-bis(hydroxymethyl)cyclobutyl]-5-(2-bromoethenyl)-2,4(1H,3H)-pyrimidinedione]
IC50 [1]: 300 nM | IC50 [2]: 60 to 150 nM
